Reference: ChEMBL document CHEMBL1201862, “PubChem BioAssay data set” (2004)
The source made the active and inactive calls.

Columns and labels:
[1] = target: Paired box protein Pax-8 (Homo sapiens, UniProt Q06710); assay: PAX8 transcriptional activity inhibition in RMG-I – RMG-I cells, luciferase, cherry-pick, dose response (AID 687027); type: functional, cell-based;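 note: luciferase reporter driven by Pax8 target thyroperoxidase promoter measured by SteadyGlo luminescence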
[2] = target: T1, Neuropeptide Y receptor type 2 (Homo sapiens, UniProt P49146); assay: Fluorescence-based cell-based high-throughput dose response assay for agonists of NPY-Y2. [Related pubchem assays: 1703 (Screening assay (CNGC inhibitors).), 1359 (Screening assay (NPY-Y2 potentiators or agonists).), 1304 (Screening assay (NPY-Y1 potentiators or agonists).), 1710 (Screening assay (NPY-Y2 agonists).), 1791 (Summary AID.)]; type: functional
T1 sequence (P49146 whole entry): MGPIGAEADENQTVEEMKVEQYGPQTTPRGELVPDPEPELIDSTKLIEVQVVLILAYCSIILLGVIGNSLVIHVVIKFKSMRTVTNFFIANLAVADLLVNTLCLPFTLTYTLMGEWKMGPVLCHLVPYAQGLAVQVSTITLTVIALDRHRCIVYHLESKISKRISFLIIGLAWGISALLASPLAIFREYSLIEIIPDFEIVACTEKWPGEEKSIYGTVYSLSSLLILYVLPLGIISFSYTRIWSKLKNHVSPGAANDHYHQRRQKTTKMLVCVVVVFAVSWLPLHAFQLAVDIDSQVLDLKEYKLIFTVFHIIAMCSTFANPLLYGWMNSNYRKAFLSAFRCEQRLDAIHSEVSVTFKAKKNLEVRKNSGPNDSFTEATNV

[3] = test system: HEK293; assay: Fluorescence-based counterscreen for potentiators or agonists of NPY-Y2: cell-based high-throughput dose response assay to identify inhibitors of cyclic nucleotide gated ion channel (CNGC) activity. In this assay, the parental HEK293 cell line transfected with a cyclic-nucleotide gated ion channel (CNGC)-based cAMP sensor is used to measure inhibition of isoproterenol-induced CNGC activity by test compound.; type: functional; conditions: Homo sapiens;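 note: stimulus is 1 µM isoproterenol at EC100 plus PDE inhibitor Ro 20-1724 at 25 µM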
[4] = target: T2, Streptokinase A (Streptococcus pyogenes serotype M1, UniProt P10520); assay: viability-normalized secreted streptokinase activity reduction – plasminogen activation absorbance, OD405, dose response (AID 1914); type: functional, Streptococcus pyogenes M1 GAS;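 note: secreted streptokinase activity via plasminogen activation per viability signal from cell pellet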
T2 sequence (P10520 whole entry): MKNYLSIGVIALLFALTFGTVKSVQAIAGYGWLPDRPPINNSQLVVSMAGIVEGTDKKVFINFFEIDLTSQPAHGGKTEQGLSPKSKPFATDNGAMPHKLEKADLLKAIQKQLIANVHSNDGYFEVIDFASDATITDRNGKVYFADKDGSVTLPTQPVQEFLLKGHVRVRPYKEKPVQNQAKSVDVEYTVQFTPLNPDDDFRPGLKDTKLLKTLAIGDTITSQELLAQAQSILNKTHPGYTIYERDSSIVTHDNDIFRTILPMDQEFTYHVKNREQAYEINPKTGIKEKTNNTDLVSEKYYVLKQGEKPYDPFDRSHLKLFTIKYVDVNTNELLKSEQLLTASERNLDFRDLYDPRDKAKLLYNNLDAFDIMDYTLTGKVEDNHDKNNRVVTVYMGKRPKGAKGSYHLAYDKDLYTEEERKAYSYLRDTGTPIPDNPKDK

[5] = test system: Streptococcus; assay: GAS UMAA2166 growth inhibition – luminescence, BacTiterGlo, counter-screen for streptokinase expression inhibitor project, dose response (AID 1915); type: functional, organism-based;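 note: potency for reduction of bacterial viability or growth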
[6] = target: T3, Fatty acid synthase (Homo sapiens, UniProt P49327); assay: inhibition of human FAS-TE enzyme activity – biochemical, kinetic fluorescence intensity, dose response (AID 624326); type: functional;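 note: rate of fluorescence rise from hydrolysis of a fluorogenic O-methyl fluorescein ester substrate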
[7] = target: T4, Neuropeptide Y receptor type 1 (Homo sapiens, UniProt P25929); assay: Fluorescence-based counterscreen for agonists of NPY-Y2: cell-based high-throughput dose response assay for agonists of NPY-Y1.; type: functional
T4 sequence (P25929 whole entry): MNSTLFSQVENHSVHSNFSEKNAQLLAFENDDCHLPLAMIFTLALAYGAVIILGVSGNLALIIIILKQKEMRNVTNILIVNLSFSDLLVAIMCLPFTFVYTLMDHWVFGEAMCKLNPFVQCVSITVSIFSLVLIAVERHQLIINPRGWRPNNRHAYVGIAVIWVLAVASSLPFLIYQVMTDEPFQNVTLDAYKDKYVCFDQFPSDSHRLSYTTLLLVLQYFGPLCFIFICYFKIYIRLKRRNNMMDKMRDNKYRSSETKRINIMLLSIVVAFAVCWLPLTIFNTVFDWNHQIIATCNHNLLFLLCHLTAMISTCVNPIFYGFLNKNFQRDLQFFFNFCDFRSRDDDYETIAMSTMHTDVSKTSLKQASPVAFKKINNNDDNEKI

[8] = test system: Streptococcus sp. 'group A'; assay: Streptococcus pyogenes SK(-)GAS viability under kanamycin – luminescence, BacTiterGlo, confirmation, counter-screen for streptokinase expression inhibitor project, dose response (AID 1900); type: functional, organism-based
[9] = target: T3, Fatty acid synthase; assay: inhibition of human FAS-TE enzyme activity – biochemical, endpoint fluorescence intensity, uHTS hits, dose response (AID 624327); type: functional;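 note: fluorescence from hydrolysis of an O-methyl fluorescein acyl ester substrate by the enzyme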
[10] = antiviral protection against BTV-induced cell death – arbovirus, BSR cells, confirmation (AID 1250); type: functional;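 note: protection from viral cytopathic effect measured as cell viability by ATP luminescence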
[11] = test system: Vero; assay: viability of Vero cells under compound – cytotoxicity control for flavivirus capping enzyme inhibitors (AID 588742); type: functional; conditions: Chlorocebus sabaeus
[12] = target: Mothers against decapentaplegic homolog 3 (Homo sapiens, UniProt P84022); assay: blockers of Smad3 complex formation in lysate – cell lysate, secondary confirmation, chemiluminescent ELISA, HEK293 lysate, dose response (AID 1058); type: functional
[13] = target: T4, Neuropeptide Y receptor type 1; type: functional
[14] = target: T1, Neuropeptide Y receptor type 2; type: functional, cell-based
[15] = target: Lytic switch protein BZLF1 (Epstein-Barr virus (strain B95-8) (HHV-4) (Human herpesvirus 4), UniProt P03206); assay: inhibition of BZLF1 ZTA DNA binding – biochemical, fluorescence polarization, Epstein-Barr virus, 1536-well, counter-screen for EBNA-1 inhibitor project, dose response (AID 2377); set-up: species or system human gammaherpesvirus 4;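 note: fluorescence polarization of Cy5-labelled ZRE DNA probe bound by purified Zta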
[16] = target: Epstein-Barr nuclear antigen 1 (Epstein-Barr virus (strain B95-8) (HHV-4) (Human herpesvirus 4), UniProt P03211); assay: inhibition of EBV nuclear antigen 1 DNA binding – biochemical, fluorescence polarization, 1536-well, dose response (AID 2381); set-up: species or system human gammaherpesvirus 4;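 note: fluorescence polarization of a Cy5 DNA probe bound by EBNA-1 protein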
[17] = target: T5, Eukaryotic translation initiation factor 2-alpha kinase 3 (Homo sapiens, UniProt Q9NZJ5); assay: Counterscreen assay for PERK inhibitors: Dose response cell-based high throughput screening assay to measure inhibition of PERK at 6 hours. [Related pubchem assays: 1522, 1416 ]; type: functional
[18] = target: T5, Eukaryotic translation initiation factor 2-alpha kinase 3; assay: Dose response cell-based high-throughput screening assay to measure PERK inhibition. [Related pubchem assays: 1416 ]; type: functional
[19] = target: Cytochrome P450 2D6 (Homo sapiens, UniProt P10635); assay: qHTS Assay for Inhibitors and Substrates of Cytochrome P450 2D6. [Related pubchem assays: 410 ]; type: ADME; conditions: human; read-out: Potency
[20] = target: T6, RNA-binding protein pos-1 (Caenorhabditis elegans, UniProt G5EF15); assay: disruptors of C. elegans POS-1 RNA interaction – biochemical, fluorescence polarization, dose response (AID 1964);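 note: purified POS-1 fused to maltose binding protein made in E. coli; potency of compounds blocking POS-1 binding to fluorescent RNA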
T6 sequence (G5EF15 whole entry): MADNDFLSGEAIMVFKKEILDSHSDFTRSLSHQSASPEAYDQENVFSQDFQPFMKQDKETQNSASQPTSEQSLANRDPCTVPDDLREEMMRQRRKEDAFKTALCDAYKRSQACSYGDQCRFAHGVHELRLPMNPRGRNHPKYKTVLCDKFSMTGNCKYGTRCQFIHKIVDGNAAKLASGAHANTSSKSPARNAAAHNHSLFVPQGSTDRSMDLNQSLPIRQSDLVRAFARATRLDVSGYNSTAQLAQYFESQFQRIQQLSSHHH

[21] = target: T7, Zinc finger protein mex-5 (Caenorhabditis elegans, UniProt Q9XUB2); assay: potency of MEX-5 RNA-binding blockers – biochemical, C. elegans, fluorescence polarization, dose response (AID 1960)
T7 sequence (Q9XUB2 whole entry): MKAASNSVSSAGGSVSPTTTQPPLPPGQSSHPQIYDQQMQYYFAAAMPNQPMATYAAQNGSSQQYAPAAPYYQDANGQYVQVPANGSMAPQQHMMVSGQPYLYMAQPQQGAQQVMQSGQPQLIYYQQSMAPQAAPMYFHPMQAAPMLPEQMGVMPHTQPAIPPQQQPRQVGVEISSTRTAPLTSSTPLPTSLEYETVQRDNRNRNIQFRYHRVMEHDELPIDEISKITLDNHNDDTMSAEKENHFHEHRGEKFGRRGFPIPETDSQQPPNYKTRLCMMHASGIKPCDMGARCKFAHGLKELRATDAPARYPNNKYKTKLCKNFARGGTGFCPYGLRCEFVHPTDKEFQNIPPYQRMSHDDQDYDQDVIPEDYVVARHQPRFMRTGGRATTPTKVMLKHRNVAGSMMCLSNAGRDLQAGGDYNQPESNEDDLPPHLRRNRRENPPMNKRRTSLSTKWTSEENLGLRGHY

[22] = target: Cytochrome P450 2C9 (Homo sapiens, UniProt P11712); conditions: read-out: Potency
[23] = target: Cytochrome P450 2C19 (Homo sapiens, UniProt P33261); assay: Cytochrome panel assay with activity outcomes. Panel member name: p450-cyp2c19 Compounds with AC50 equal or less than 10 uM are considered active; type: functional

T3 sequence (P49327 whole entry): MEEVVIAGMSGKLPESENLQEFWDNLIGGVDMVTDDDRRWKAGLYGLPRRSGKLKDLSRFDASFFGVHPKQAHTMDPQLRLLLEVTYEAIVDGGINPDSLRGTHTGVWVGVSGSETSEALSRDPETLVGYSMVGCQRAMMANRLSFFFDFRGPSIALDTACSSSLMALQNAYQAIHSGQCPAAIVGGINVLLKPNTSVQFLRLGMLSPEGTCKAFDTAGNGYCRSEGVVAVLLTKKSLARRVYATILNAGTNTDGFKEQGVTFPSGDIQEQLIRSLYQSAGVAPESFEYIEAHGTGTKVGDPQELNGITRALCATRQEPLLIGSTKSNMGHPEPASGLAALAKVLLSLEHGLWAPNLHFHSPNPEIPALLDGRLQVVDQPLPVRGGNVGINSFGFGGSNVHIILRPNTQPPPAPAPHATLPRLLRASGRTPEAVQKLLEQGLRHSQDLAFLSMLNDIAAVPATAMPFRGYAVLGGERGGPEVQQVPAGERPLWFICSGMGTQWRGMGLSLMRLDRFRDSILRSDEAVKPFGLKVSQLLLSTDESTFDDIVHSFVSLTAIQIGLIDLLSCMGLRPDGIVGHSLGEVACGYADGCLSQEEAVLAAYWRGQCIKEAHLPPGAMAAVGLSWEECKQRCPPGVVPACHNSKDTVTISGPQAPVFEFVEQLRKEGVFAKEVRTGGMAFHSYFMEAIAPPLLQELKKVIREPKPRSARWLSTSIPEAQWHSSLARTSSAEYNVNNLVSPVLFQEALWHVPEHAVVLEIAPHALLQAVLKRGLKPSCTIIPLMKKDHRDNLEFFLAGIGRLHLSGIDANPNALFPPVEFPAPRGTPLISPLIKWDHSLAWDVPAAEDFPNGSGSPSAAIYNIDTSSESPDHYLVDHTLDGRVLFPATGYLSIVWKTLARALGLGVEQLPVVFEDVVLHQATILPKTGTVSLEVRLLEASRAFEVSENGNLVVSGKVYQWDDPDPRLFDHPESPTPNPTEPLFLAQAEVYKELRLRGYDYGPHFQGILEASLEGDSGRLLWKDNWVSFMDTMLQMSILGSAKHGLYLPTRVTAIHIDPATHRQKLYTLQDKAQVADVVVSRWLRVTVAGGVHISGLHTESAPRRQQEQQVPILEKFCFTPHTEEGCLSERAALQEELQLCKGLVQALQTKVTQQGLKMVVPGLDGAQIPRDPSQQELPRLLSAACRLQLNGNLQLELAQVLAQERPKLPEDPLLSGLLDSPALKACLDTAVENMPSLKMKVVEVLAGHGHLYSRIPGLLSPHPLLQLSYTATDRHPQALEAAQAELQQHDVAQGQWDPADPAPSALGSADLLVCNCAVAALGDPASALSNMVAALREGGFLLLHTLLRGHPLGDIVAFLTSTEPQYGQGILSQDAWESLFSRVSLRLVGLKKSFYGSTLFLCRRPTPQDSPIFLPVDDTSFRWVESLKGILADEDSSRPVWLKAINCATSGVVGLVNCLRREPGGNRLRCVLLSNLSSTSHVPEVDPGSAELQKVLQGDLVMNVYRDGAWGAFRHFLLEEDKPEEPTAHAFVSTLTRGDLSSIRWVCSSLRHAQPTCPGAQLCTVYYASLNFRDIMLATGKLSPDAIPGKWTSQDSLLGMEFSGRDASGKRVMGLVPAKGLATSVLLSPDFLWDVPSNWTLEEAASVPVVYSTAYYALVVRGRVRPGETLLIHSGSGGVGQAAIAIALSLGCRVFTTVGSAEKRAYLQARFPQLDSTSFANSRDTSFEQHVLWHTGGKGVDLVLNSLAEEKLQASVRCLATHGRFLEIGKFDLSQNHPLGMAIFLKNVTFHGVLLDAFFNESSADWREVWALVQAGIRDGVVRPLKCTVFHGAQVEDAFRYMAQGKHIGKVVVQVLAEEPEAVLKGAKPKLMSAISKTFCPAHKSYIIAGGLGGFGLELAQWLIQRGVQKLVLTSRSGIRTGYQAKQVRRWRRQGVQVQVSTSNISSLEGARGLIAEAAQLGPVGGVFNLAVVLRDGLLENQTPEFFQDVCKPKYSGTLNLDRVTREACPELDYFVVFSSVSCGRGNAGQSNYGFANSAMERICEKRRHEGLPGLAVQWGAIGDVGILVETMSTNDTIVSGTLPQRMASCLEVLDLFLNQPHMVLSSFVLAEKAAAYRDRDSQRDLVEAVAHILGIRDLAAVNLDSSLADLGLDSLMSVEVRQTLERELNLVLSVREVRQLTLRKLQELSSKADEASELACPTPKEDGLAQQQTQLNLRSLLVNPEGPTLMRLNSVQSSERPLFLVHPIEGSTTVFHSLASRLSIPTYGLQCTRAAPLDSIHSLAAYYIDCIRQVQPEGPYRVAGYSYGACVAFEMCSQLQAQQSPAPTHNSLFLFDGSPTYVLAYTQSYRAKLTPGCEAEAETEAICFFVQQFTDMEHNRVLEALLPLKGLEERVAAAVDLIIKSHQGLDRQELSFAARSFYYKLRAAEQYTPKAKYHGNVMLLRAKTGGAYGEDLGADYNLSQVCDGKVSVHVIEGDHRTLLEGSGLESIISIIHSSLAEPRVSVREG
T5 sequence (Q9NZJ5 whole entry): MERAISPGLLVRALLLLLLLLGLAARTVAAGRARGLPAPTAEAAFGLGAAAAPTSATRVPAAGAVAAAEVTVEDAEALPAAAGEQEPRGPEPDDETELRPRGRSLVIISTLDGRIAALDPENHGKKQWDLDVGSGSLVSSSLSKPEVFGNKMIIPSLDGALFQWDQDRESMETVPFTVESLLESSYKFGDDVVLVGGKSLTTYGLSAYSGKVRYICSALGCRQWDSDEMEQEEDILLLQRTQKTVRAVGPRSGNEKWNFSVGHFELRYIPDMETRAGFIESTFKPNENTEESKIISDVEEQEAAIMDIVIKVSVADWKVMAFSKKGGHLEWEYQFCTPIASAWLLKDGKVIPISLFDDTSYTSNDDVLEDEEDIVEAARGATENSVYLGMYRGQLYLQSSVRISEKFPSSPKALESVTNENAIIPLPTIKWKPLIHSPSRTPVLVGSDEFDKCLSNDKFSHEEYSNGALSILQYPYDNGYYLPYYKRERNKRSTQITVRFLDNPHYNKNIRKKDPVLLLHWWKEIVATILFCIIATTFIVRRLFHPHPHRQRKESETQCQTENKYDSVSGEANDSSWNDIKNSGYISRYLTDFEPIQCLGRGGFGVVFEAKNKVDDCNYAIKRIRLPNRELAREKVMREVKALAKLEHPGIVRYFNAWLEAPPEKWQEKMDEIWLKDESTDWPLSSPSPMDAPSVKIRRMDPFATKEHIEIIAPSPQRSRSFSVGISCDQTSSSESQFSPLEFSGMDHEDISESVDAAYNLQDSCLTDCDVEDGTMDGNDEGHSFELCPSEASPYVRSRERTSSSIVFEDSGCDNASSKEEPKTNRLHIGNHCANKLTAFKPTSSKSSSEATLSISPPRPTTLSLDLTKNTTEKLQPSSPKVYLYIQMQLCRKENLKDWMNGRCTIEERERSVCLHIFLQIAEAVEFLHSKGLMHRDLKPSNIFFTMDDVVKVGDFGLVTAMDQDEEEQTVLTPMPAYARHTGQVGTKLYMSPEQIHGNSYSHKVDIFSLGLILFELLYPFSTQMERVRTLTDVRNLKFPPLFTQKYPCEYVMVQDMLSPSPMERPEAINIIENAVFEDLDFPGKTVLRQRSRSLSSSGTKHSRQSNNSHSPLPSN
Paired box protein Pax-8, sequence (Q06710 whole entry): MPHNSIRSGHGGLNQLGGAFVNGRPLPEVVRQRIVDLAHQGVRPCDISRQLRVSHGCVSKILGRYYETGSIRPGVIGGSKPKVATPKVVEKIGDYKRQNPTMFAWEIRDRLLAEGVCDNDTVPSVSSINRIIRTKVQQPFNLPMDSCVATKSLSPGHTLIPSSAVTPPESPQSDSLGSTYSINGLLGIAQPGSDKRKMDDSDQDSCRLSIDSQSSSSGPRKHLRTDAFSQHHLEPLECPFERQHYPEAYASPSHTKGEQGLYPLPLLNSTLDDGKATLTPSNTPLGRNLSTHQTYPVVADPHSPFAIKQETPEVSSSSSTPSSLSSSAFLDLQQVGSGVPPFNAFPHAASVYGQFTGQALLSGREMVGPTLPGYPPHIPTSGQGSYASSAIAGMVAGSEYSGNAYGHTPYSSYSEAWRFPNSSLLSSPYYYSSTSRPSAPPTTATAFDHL
Lytic switch protein BZLF1, sequence (P03206 whole entry): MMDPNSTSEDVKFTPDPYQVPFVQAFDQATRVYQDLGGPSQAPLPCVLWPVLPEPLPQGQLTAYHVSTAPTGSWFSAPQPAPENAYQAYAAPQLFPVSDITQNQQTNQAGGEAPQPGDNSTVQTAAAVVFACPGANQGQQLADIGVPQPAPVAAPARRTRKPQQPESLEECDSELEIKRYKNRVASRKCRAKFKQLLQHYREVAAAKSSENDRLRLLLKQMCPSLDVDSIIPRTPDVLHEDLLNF
Cytochrome P450 2C9, sequence (P11712 whole entry): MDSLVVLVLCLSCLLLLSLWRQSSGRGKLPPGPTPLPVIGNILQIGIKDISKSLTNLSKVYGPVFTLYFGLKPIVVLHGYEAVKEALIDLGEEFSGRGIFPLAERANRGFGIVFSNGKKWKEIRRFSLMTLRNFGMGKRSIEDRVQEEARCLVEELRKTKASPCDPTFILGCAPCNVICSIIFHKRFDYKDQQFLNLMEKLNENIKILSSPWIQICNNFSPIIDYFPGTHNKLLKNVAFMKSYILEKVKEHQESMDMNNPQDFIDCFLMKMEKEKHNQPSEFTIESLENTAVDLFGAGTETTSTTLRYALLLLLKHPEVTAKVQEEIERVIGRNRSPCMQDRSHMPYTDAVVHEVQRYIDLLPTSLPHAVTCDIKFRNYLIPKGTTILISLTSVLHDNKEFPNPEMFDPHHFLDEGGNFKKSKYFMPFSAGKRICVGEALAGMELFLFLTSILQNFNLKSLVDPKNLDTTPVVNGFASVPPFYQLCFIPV

SMILES: C=CCN1C(=O)/C(=C/c2ccc(OC(C)=O)c(OCC)c2[N+](=O)[O-])SC1=S
- AC50 [1]: 5.91 µM (active)
- EC50 [2]: 18.4 µM (not active)
- EC50 [3]: > 11.8 µM (not active)
- EC50 [4]: > 150 µM (not active)
- EC50 [5]: 2.63 µM (active)
- IC50 [6]: 2.87 µM (active)
- EC50 [7]: 14.8 µM (not active)
- EC50 [8]: 1.32 µM (active)
- IC50 [9]: 5.92 µM (active)

SMILES: CCOc1ccc(CNc2ccc3c(c2)nc(C)n3C)cc1
- IC50 [10]: 26.6 µM (active)
- CC50 [11]: > 40 µM (active)

SMILES: COc1ccc(C(c2cc3c(cc2O)OCO3)N2CCN(C(c3ccc(OC)cc3)c3cc4c(cc3O)OCO4)CC2)cc1 (centres undefined)
- IC50 [12]: 36.1 µM (not active)

SMILES: N=c1n(Cc2ccc(Cl)cc2)c2ccccc2n1CC(O)c1ccco1 (centres undefined)
- IC50 [13]: > 35 µM (not active)
- IC50 [14]: > 35 µM (not active)

SMILES: N#C/C(=C\c1cn(Cc2ccccc2F)c2ccccc12)C(=O)NCc1ccco1
- IC50 [15]: > 111 µM (not active)
- IC50 [16]: 6.53 µM (active)

SMILES: Cc1cccc(/C=N/n2c(S)nnc2-c2ccco2)c1
- EC50 [17]: > 55.7 µM (not active)
- EC50 [18]: > 55.7 µM (not active)

SMILES: C=CC1=C(C)c2cc3[nH]c(cc4nc(cc5[nH]c(cc1n2)c(C)c5CCC(=O)O)C(CCC(=O)O)=C4C)c(C)c3C=C [PROTOPORPHYRIN]
- AC50 [19]: 25.1 µM (inconclusive)
- CC50 [11]: 19.7 µM (active)
- EC50 [20]: 9.95 µM (active)
- EC50 [21]: 8.89 µM (active)
- AC50 [22]: 6.31 µM (inconclusive)
- AC50 [23]: inconclusive
